Literature values in patent US20100063116A1 (priority 2006, published 2010).
Where two headings read alike, the source gives them in different places.

Experiments:
[1] = tested on: D2 subfamily of dopamine receptors; conditions: in vitro
[2] = tested on: dopamine receptors in the striatum and the substantia nigra; conditions: electrophysiologic studies in animals
[3] = tested on: patients with early Parkinson's disease
[4] = tested on: patients with early Parkinson's disease; remark: listed apart in the source
[5] = end of 6-month maintenance, titrated up to 4.5 mg/day in three divided doses

## CCCN[C@@H]1CCc2nc(N)sc2C1 [Pramipexole, pramipexole]
[1]
  intrinsic activity at the D2 subfamily of dopamine receptors: full intrinsic activity
[2]
  effect on striatal neuronal firing rates: influences striatal neuronal firing rates
CV=20%
  volume of distribution: about 500 L
CV=25%
  renal clearance: approximately 400 mL/min
Almost all as unchanged drug
  dose recovered in urine: 90%
Dialysis patients
  clearance in dialysis patients: extremely low
Elderly volunteers
  terminal half-life: about 12 hours
human, in vivo
  metabolites in plasma or urine: no metabolites have been identified
  pharmacokinetics in early versus advanced Parkinson's disease patients: comparable
Moderate renal impairment (creatinine clearance approximately 40 mL/min)
  decrease of clearance compared with healthy volunteers: about 60%
Of dosing
  time to steady-state concentrations: ≤ 2 days
oral
  absolute bioavailability: greater than 90%
Over the clinical dosage range
  linearity of pharmacokinetics: linear pharmacokinetics
Severe renal impairment (creatinine clearance approximately 20 mL/min)
  decrease of clearance compared with healthy volunteers: about 75%
Taken with food
  effect of food on the extent of absorption: does not affect
Young healthy volunteers
  terminal half-life: about 8 hours
Plasma proteins
  bound to plasma proteins: about 15%
[3]; [5]
  mean improvement from baseline on the UPDRS part II (ADL) total score: 1.9
  mean improvement from baseline on the UPDRS part III total score: 5.0
[3]; maximum dose 0.75 mg/day
  beginning of statistically significant difference versus placebo, UPDRS part II: 2 week
[3]; maximum dose 1.5 mg/day
  beginning of statistically significant difference versus placebo, UPDRS part III: 3 week
[4]; 1.5 mg, 3.0 mg, 4.5 mg, or 6.0 mg per day
  dose-response relationship: No dose-response relationship was demonstrated
[4]; end of 4-week maintenance, fixed doses 1.5-6.0 mg per day
  mean improvement from baseline on the UPDRS part III total score: 4.2
[4]; end of 4-week maintenance, fixed doses 1.5-6.0 mg per day, regardless of dose group
  mean improvement from baseline on the UPDRS part II total score: 1.8
[4]; fixed-dose study in early Parkinson's disease patients
  benefit of 3 mg, 4.5 mg and 6 mg per day beyond 1.5 mg/day: not shown to provide any significant benefit
